Test results taken from patent US4260774A, “5-Carbamoyl imidazoles” (Sumitomo Chemical Company, Limited, priority 1976, dated 1981).

Assays:
[1] = in words; literature; cited from earlier work
L5178Y cells = details: in words; literature; suggested due to metabolic conversion to bredinin; cited from earlier work
Sarcoma 180 = test: Antitumor effect on mouse experimental tumor Sarcoma 180 (solid); type: in vivo, mouse (ICR-JCL male mice); details: Sarcoma-180, ip, 240 h; for inhibition in vivo at 100 mg/kg: 100 mg/kg i.p.
Method: ICR-JCL male mice, 5 weeks old, weighing between 23 and 26 grams were used. Each test group was composed of 5 mice. One million cells of Sarcoma 180 were injected intramusculary in hind leg. The drug was administered intrapenitoneally at day 1, 3, 5, 7 and 9. After killing the mice at day 10, tumors were removed and weighed. The tumor inhibitory ratio was calculated according to the following formula. [formula]

[2] = tested on: plaque forming cell (PFC); test: Immunosuppressive activity: plaque forming cell (PFC) number by Cunningham method in mice injected with sheep red blood cells; type: in vivo; details: days 0 to 3, measured day 4
Method: The immunosuppressive activities of the compounds of the present invention, Azathioprine and 6-mercaptopurine are given in the following table. After a sheep red blood cell preparation (SRBC) was injected in mice, the compounds were administered orally once a day on days 0 to 3. The plaque forming cell (PFC) number was measured on day 4 by Cunningham method. [Cunningham A. J. et al. Immunol. 14, 599 (1968)]

mouse leukemia P388 = test: Antitumor effect on mouse experimental tumor P388 leukemia; type: in vivo, CDF1 mouse; details: day 1 & 5
Excerpt: The antitumor activities of the compounds of the present invention were estimated according to the methods described in "Oyo-Yakuri," Vol. 14, P. 521 (in Japanese).
animals: CDF1 mouse (6 mice/group)
tumor: mouse leukemia P388
inoculum size: 10^6 cells/mouse
day of administration: day 1 & 5
administration route: i.p.
evaluation: median survival time

lymphatic leukemia L1210 = details: in words; literature; cited from earlier work
[3] = day 1, 3, 5, 7 and 9, tumor weight day 10, read-out: Inhibition Ratio (%) Sarcoma 180 (solid)
[4] = read-out: Inhibition Ratio (%) Sarcoma 180 (solid)

In the case of `NC(=O)c1nc[nH]c1O` [4-carbamoylimidazolium-5-olate], the “immunosuppressive activity / effects” value [1] is given as “immunosuppressive effects” and the “growth inhibitory effects on L5178Y cells” value (L5178Y cells) is given as “growth inhibitory effects”.

For `N#Cc1cccc(C(=O)Oc2nc[nH]c2C(N)=O)c1` [5-Carbamoyl-1H-imidazol-4-yl m-cyanobenzoate], the inhibition in vivo at 100 mg/kg (Sarcoma 180; [3]) was 38.3%.

For `NC(=O)c1[nH]cnc1OC(=O)c1ccc(F)cc1` [5-Carbamoyl-1H-imidazol-4-yl p-fluorobenzoate], the inhibition in vivo at 100 mg/kg (Sarcoma 180; [3]) was 36%.

`Cc1ccc(C(=O)Oc2nc[nH]c2C(N)=O)cc1` [5-Carbamoyl-1H-imidazol-4-yl p-methylbenzoate] gave an inhibition in vivo at 100 mg/kg (Sarcoma 180; [3]) of 38.3%.

Molecule `NC(=O)c1[nH]cnc1OC(=O)c1ccc([N+](=O)[O-])cc1` [5-Carbamoyl-1H-imidazol-4-yl p-nitrobenzoate] has an inhibition in vivo at 100 mg/kg (Sarcoma 180; [3]) of 44.7%.

In the case of `NC(=O)c1[nH]cnc1OC(=O)c1ccccc1` [5-Carbamoyl-1H-imidazole-4-yl benzoate, 5-carbamoyl-1H-imidazol-4-yl benzoate], the “Effects PFC/spleen × 10^-4” value ([2]; 25 mg/kg/day p.o.) was 19.88 ± 6.06 PFC/spleen × 10^-4, the “Suppression (%)” value ([2]; 25 mg/kg/day p.o.) was 68.1% and the “Effects PFC/spleen × 10^-4” value ([2]; 100 mg/kg/day p.o.) was 8.63 ± 2.61 PFC/spleen × 10^-4. For the same molecule, the “Suppression (%)” value ([2]; 100 mg/kg/day p.o.) was 89.4%.

`O=c1[nH]cc(F)c(=O)[nH]1` [5-Fluorouracil, reference compound] showed an inhibition in vivo at 30 mg/kg (Sarcoma 180; [4]) of 66%.

In the case of `NC(=O)c1[nH]cnc1OC(=O)C12CC3CC(CC(C3)C1)C2` [5-carbamoyl-1H-imidazol-4-yl 1-adamantanecarboxylate], the “Effects PFC/spleen × 10^-4” value ([2]; 25 mg/kg/day p.o.) was 14.19 ± 2.24 PFC/spleen × 10^-4, the “Suppression (%)” value ([2]; 25 mg/kg/day p.o.) was 77.2% and the “Effects PFC/spleen × 10^-4” value ([2]; 100 mg/kg/day p.o.) was 5.19 ± 1.29 PFC/spleen × 10^-4. For the same molecule, the “Suppression (%)” value ([2]; 100 mg/kg/day p.o.) was 93.6%, the inhibition in vivo at 50 mg/kg (Sarcoma 180; 50 mg/kg i.p., day 1, 3, 5, 7 and 9, tumor weight day 10, read-out: Inhibition Ratio (%) Sarcoma 180 (solid)) was 53.9% and the inhibition in vivo at 100 mg/kg (Sarcoma 180; [3]) was 71.4%. The inhibition in vivo at 200 mg/kg (Sarcoma 180; 200 mg/kg i.p., day 1, 3, 5, 7 and 9, tumor weight day 10, read-out: Inhibition Ratio (%) Sarcoma 180 (solid)) was 88.8%, the inhibition in vivo at 206 mg/kg (Sarcoma 180; 206 mg/kg i.p., day 1, 3, 5, 7 and 9, tumor weight day 10, read-out: Inhibition Ratio (%) Sarcoma 180 (solid)) was 100% and the “Evaluation T/C (%) P388 (median survival time)” value (from here on “Evaluation T/C (%) P388”) (mouse leukemia P388; 100 mg/kg i.p.) was 112%. For the same molecule, the “Evaluation T/C (%) P388” value (mouse leukemia P388; 200 mg/kg i.p.) was 120% and the “Evaluation T/C (%) P388” value (mouse leukemia P388; 400 mg/kg i.p.) was 138%.

For `NC(=O)c1[nH]cnc1OC(=O)c1ccc2c(c1)OCO2` [5-carbamoyl-1H-imidazol-4-yl 3,4-methylenedioxybenzoate], the inhibition in vivo at 100 mg/kg (Sarcoma 180; [3]) was 65.1%.

Molecule `NC(=O)c1[nH]cnc1OC(=O)c1ccc(Br)cc1` [5-carbamoyl-1H-imidazol-4-yl p-bromobenzoate] has an inhibition in vivo at 100 mg/kg (Sarcoma 180; [3]) of 66%.

For `NC(=O)c1[nH]cnc1OC(=O)c1ccc(Cl)cc1` [5-carbamoyl-1H-imidazol-4-yl p-chlorobenzoate], the “Effects PFC/spleen × 10^-4” value ([2]; 25 mg/kg/day p.o.) was 22.06 ± 5.37 PFC/spleen × 10^-4, the “Suppression (%)” value ([2]; 25 mg/kg/day p.o.) was 64.6% and the inhibition in vivo at 100 mg/kg (Sarcoma 180; [3]) was 49.1%.

For `Sc1ncnc2nc[nH]c12` [6-Mercaptopurine, 6-mercaptopurine, reference compound], the “Effects PFC/spleen × 10^-4” value ([2]; 25 mg/kg/day p.o.) was 30.78 ± 6.28 PFC/spleen × 10^-4 and the “Suppression (%)” value ([2]; 25 mg/kg/day p.o.) was 60.2%.

With `Cn1cnc([N+](=O)[O-])c1Sc1ncnc2nc[nH]c12` [Azathioprine, 6-(1-methyl-4-nitro-5-imidazolyl)mercaptopurine, reference compound] the “Effects PFC/spleen × 10^-4” value ([2]; 100 mg/kg/day p.o.) was 26.73 PFC/spleen × 10^-4 and the “Suppression (%)” value ([2]; 100 mg/kg/day p.o.) was 81.6%.

Work on `CO[C@@]12[C@H](COC(N)=O)C3=C(C(=O)C(C)=C(N)C3=O)N1C[C@@H]1N[C@@H]12` [Mitomycin C, reference compound] yielded an inhibition in vivo at 2 mg/kg (Sarcoma 180; [4]) of 74%.

For `NC(=O)c1ncn([C@@H]2O[C@H](CO)[C@@H](O)[C@H]2O)c1O` [bredinin, 4-carbamoyl-1-β-D-ribofuranosylimidazolium-5-olate], the “immunosuppressive activity / effects” value [1] is listed as “has immunosuppressive activity” and the “antitumor activity against lymphatic leukemia L1210” value (lymphatic leukemia L1210) is listed as “weak antitumor activity”.
